One data set has as its system SAOS-2 cells. In words: Annexin V-FITC apoptosis assay, SAOS-2. To be noted: at ED50, 72 hours of exposure. Type of data set: cell-based, human. The method, then:
Cells were harvested and fixed with 70% ethanol at regular time intervals. Fixed cells were stained with propidium iodide (PI) for flow cytometry analysis using BD FACScan (BD Biosciences, San Jose, Calif.). Distribution of cell cycle was analyzed by ModFit LT V2.0 software (Verity Software House, Topsham, Me.). […] After 24, 48, and 72 hours of exposure, cells were harvested and stained with PI and fluorescein isothiocyanate (FITC) using Annexin V-FITC apoptosis detection kit (BD Biosciences) according to the manufacturer's protocol. Cells were subjected to flow cytometry analysis within one hour of staining.

The subject of another data set is MG-63 xenografts. In words: Growth of MG-63 xenografts in athymic nude mice. Type of data set: in vivo. The protocol:
All animal experiments strictly followed the guidelines of Cedars-Sinai Medical Center and the National Institute of Health (NIH). Female nu/nu athymic nude mice (5-6 weeks old; average weight 21 g; specific pathogen-free) from Harlan Laboratories (Indianapolis, Ind.) were maintained in pathogen-free condition with sterilized chow and water. 5×10^6 cells of MG-63 cells were mixed with 200 μl of Matrigel solution (BD Biosciences) per injection, and the mixture was injected subcutaneously on the upper flanks of nude mice. After 24 hours, tumor size was measured, and any outliers were ruled out by one-way analysis of variance (ANOVA) test. […] The conversion was made using dose translation formula by Reagan-Shaw et al., (15). […] Body weights were monitored every 2 days. Tumor size was measured every 2 days, and the tumor volume was calculated using the following formula: A (length)×B (width)×C (height)×0.5236 (16). The experiment was stopped at day 35, and all mice were sacrificed. The presence of metastatic spread was examined macroscopically at the time of autopsy followed by histological examination. At least two tumors from each group were snap-frozen in liquid nitrogen for Western blotting.

Data set [1] relates to phospho-mTOR (S2448) and survivin. Nature of the data set: Western blots from snap-frozen xenograft tumors. In kind it is in vivo. The conditions noted are these: mice treated with LD-CuB, day 35. The method, then:
Changes in protein level by CuB were checked by Western blotting. […] After 2, 9, and 20 hours of exposure, cells were harvested and immediately lysed with RIPA buffer (Millipore—Upstate, Temecula, Calif.) supplemented with protease inhibitor cocktail (Roche, San Francisco, Calif.), 0.5 mM PMSF (Roche), and 50 mM NaF (Sigma). After 20 minutes of incubation on ice, protein concentrations were measured by Bradford assay with Bio Rad protein assay solution (Bio-Rad, Hercules, Calif.) and samples were adjusted to the same protein concentration. Samples were mixed with 2× Laemmli sample buffer (Bio-Rad) with 5% β-mercaptoethanol (Sigma) and incubated at 95° C. for 10 min to denature the protein. After brief incubation on ice, proteins were separated by SDS-PAGE, transferred to nitrocellulose membrane (Sigma), and blotted with antibodies from either Cell Signaling Technology (Danvers, Mass.) or Santa Cruz Biotechnology (Santa Cruz, Calif.). […]
All animal experiments strictly followed the guidelines of Cedars-Sinai Medical Center and the National Institute of Health (NIH). […] After 24 hours, tumor size was measured, and any outliers were ruled out by one-way analysis of variance (ANOVA) test. […] Body weights were monitored every 2 days. Tumor size was measured every 2 days, and the tumor volume was calculated using the following formula: A (length)×B (width)×C (height)×0.5236 (16). […]
(Immunoblotting shows a protein as a band on a membrane.)

Data set [2] deals with clonogenic hematopoietic cells. In words: Colony-forming cell (CFC) assays of bone marrow. To be noted: day 35, 2 × 10^4 cells/well.
Method: Whole blood samples were obtained by submandibular bleeding and serum samples were harvested with serum separator tubes (BD Biosciences). Blood count and serum chemistry results were obtained by the Hemagen Analyst Benchtop Chemistry System (Hemagen Diagnostics, Inc. Columbia, Md.). Colony-forming cell (CFC) assays were performed as previously described (18).
Another data set has as its target mTOR (Homo sapiens, UniProt P42345). In words: DARTS analysis, mTOR. Type of data set: binding. The arrangement: endogenous in cells; host or cells: MG-63 whole-cell lysate. To be noted: MG-63 whole-cell lysates; 10, 100, or 1000 nM, 30 min. The method, then:
Direct interaction of CuB and mTOR was assessed by DARTS as described in the original article with some modifications (14). Briefly, confluent MG-63 cells were harvested and lysed with lysis buffer (1% Triton X-100, 150 mM NaCl. 100 mM Tris-HCl, pH 7.4, 1 mM EDTA, and 1 mM EGTA, pH 8.0) supplemented with protease inhibitor (Roche, San Francisco, Calif.), 0.2 mM PMSF (Roche), and 0.2 mM Na3VO4 (Sigma). Cell lysates were incubated with 0.1 volume of increasing concentrations (10-1000 nM) of either DMSO or CuB at room temperature for 30 min. Lysates were then proteolyzed with thermolysin (Sigma) at room temperature for 3 min. Reaction was stopped by adding 0.5 M EDTA solution and 2× Laemmli sample buffer (Bio-Rad, Hercules, Calif.) with 5% β-mercaptoethanol (Sigma). Western blotting was performed as described below.

`CC(=O)OC(C)(C)/C=C/C(=O)[C@](C)(O)[C@H]1[C@H](O)C[C@@]2(C)[C@@H]3CC=C4[C@H](C[C@H](O)C(=O)C4(C)C)[C@]3(C)C(=O)C[C@]12C` [CuB, cucurbitacin B] came in with an apoptotic cells in the data set on SAOS-2 cells of 96%. Also, the tumor growth inhibition result in the data set on MG-63 xenografts (HD-CuB 1.0 mg/kg alone) is “strong growth inhibition”. Besides, the tumor volume entry in the data set on MG-63 xenografts (LD-CuB 0.5 mg/kg, single agent) is “allowed the tumor volume to increase slightly from its original size”. For the same compound, the “phospho-mTOR (S2448) and survivin in tumors” value in data set [1] is “decreased amount of phospho-mTOR (S2448) and its downstream target survivin”. In addition, in data set [2] (HD-CuB 1.0 mg/kg), the “BFU-E, number of colonies” value was 8.3 ± 1.6; the “CFU-GEMM, number of colonies” value was 3.8 ± 0.8; the “CFU-GM, number of colonies” value was 64.6 ± 4.6. Also, in data set [2] (LD-CuB 0.5 mg/kg), the “BFU-E, number of colonies” value is on record as 9.7 ± 1.4; the “CFU-GEMM, number of colonies” value turned out to be 4.2 ± 0.8; the “CFU-GM, number of colonies” value is listed as 69.8 ± 3.0. The “protection of mTOR protein from thermolysin proteolysis (DARTS)” value on mTOR is “dose-dependent protection of mTOR protein from thermolysin proteolysis”.
